Data on 3 compounds can be found in US4894459A, “Process for the preparation of morphologically homogeneous forms of thiazole derivatives” (Richter Gedeon Vehyeszeti Gyar Rt., priority 1986, dated 1990).

As a reminder, the solubility is how much of the substance goes into solution per volume. A higher solubility goes with much dissolved substance.

For data set [1] the following is noted: medium with a pH lower than 3.
Another data set concerns histamine-H2 receptor. Particulars: well known; cited from earlier work.
For data set [2] the following is noted: for Rolling angle (basic angle of the cone): funnel with tube of 5 mm diameter, opening 10 cm above the level of the material. How it is done:
The data given here were measured according to the following scheme:
The form to be tested was filled into a funnel provided with a tube of 5 mm diameter, then the funnel was set into a position so that its opening was 10 cm above the level of the material.

For data set [3] the following is noted: for Deformity ratio: ratio of longitudinal axis and greatest diameter, average of 250 grains. The protocol: (G) The Deformity Ratio of the Crystals
Deformity ratio means the ratio of the longitudinal axis and greatest diameter of the crystal.
The data were determined from the measurement of 250-250 grains by averaging.

A short description of another data set: physchem. Conditions: for solubility at 5 h: distilled water, water, Saturation solubility, 5 hours stirring, UV at 277 nm. The protocol:
The investigation was made as follows: the different forms were stirred in distilled water for 5 hours, and the concentration of the material in solution was determined by ultraviolet spectroscopy at 277 nm wavelength.

For data set [4] the following is noted: 95:5 mixtures, water, 24 hours at 60° C. The protocol: (I) Thermodynamic Stability
The test was made as follows: a mixture of the different forms in a ratio of 95:5 for both derivatives contaminated with the other polymorph was prepared, then the system was stirred with a magnetic stirrer for 24 hours at 60° C. so that water only covered the crystals. The crystals were then filtered and morphologically studied.

The conditions of data set [5]: for Electrostatic charging: amount of stuck material after knocking / Electrostatic charging: amount of stuck material without knocking: 37 g in glass dish of 120 mm, 1 minute rubbing; for Electrostatic charging: amount of stuck material after knocking: dish knocked 10 times. The protocol: (J) Electrostatic Charging
As there is no simple procedure to be carried out in an organic chemistry laboratory, the data presented below were measured as follows: Into a glass dish of 120 mm diameter 37 g of one of the forms were transferred and then the sample was stirred for 1 minute with rubbing with a flattened end glass-rod. Following this, the content of the dish was poured out without shaking, and the amount of stuck material was measured on a balance. Then the measurement was repeated so that the dish was knocked 10 times.

The conditions of data set [6]: for Compaction ratio: with / without compaction; for Bulk density with compaction: hand-vibrator for 5 minutes.
The conditions of data set [7]: 10 mg in 100 ml distilled water.
Protocol: The investigation was made as follows: 10-10 mg of the form to be tested were weighed into 100 ml of distilled water, under stirring. At appropriate times samples were taken from the system, and after filtration and appropriate dilution the amount of dissolved famotidine was determined by ultraviolet spectrophotometry.
For data set [8] the following is noted: form "A" vs form "B".

The structures appear in SMILES notation. ≈ marks a conversion by molar mass, not a printed value.

On to `N=C(N)Nc1nc(CSCCC(=N)NS(N)(=O)=O)cs1` [Famotidine, N-sulfamoyl-3-(2-guanidino-thiazole-4-yl-methylthio)-propionamidine], for which the “Hydrolysis of the amidino group” value in [1] is listed as “highly capable of hydrolysis”. Moreover, the “histamine-H2 receptor blocking effect” value with histamine-H2 receptor is listed as “excellent”.
For the compound `NC(N)=Nc1nc(CSCCC(N)=NS(N)(=O)=O)cs1` [Form "A", N-sulfamoyl-3-(2-guanidino-thiazole-4-yl-methylthio)-propionamidine], the “Rolling angle (basic angle of the cone)” value in data set [2] is on record as 41-42 °. Also, the Deformity ratio in [3] came out at 1.40. In “physchem”, this compound showed a solubility at 5 h of 860 µg/mL (≈ 2550 µM). Moreover, the Thermodynamic stability entry in data set [4] was “stabile”. In [5], the “Electrostatic charging: amount of stuck material after knocking” value amounted to 0.5 g and the “Electrostatic charging: amount of stuck material without knocking” value came out at 2.8 g. Also, in data set [6], the Compaction ratio came to 1.38, the “Bulk density with compaction” value was found to be 960 g/L and the “Bulk density without compaction” value was determined as 695 g/L. Besides, in data set [7], the “Dynamic solubility at 2 min” value is 19 mg/L, the “Dynamic solubility at 5 min” value amounted to 25 mg/L, the “Dynamic solubility at 10 min” value is 42 mg/L and the “Dynamic solubility at 1 hour” value came to 72 mg/L. The “Handling and stability, comparison in words” value in data set [8] is on record as “unambiguously more advantageous”.
Take `NC(N)=Nc1nc(CSCCC(N)=NS(N)(=O)=O)cs1` [Form "B", N-sulfamoyl-3-(2-guanidino-thiazole-4-yl-methylthio)-propionamidine]: in data set [2], the “Rolling angle (basic angle of the cone)” value was “more than 55 °”. Also, the “Slope of piled up sample at the beginning” value in data set [2] (rolling angle test, footnote x, correct rolling angle not measurable) is reported as 80-85 °. Further, the “Deformity ratio, times higher than form "A"” value in data set [3] (form "B" vs form "A") is recorded as 3.3 times. Further, the Deformity ratio in [3] came out at 4.70. The compound further gave a solubility at 5 h in “physchem” (unit given as mg) of 980 µg/mL (≈ 2900 µM). In addition, the “Saturation solubility, comparison in words” value in “physchem” (form "B" vs form "A") is “significantly higher”. Also, the Thermodynamic stability result in data set [4] is “metastabile”. In addition, in data set [5], the “Electrostatic charging: amount of stuck material after knocking” value is 10.0 g and the “Electrostatic charging: amount of stuck material without knocking” value turned out to be 13 g. In addition, the “Electrostatic charging: amount attracted, times more than form "A"” value in data set [5] (form "B" vs form "A") was 20 times. In data set [6], the Compaction ratio is recorded as 1.47, the “Bulk density with compaction” value amounted to 505 g/L and the “Bulk density without compaction” value was 340 g/L. Also, in data set [7], the “Dynamic solubility at 2 min” value was 25 mg/L, the “Dynamic solubility at 5 min” value stood at 40 mg/L, the “Dynamic solubility at 10 min” value was found to be 51 mg/L and the “Dynamic solubility at 1 hour” value stood at 76 mg/L.
